Patent US8163781B2, “Bi-aryl aminotetralines” (Hoffman-La Roche Inc., priority 2008, dated 2012)

The compounds below were run against T1, human CRTH2 (Homo sapiens, UniProt Q9Y5Y4) (assay: Human CRTH2 Receptor Binding Assay). Details: whole cell binding, CHO-K1 cells expressing human CRTH2, 20 nM [3H]ramatroban as competing radioligand.
T1 construct: expressed in transfected cells
T1 sequence (Q9Y5Y4 1-395): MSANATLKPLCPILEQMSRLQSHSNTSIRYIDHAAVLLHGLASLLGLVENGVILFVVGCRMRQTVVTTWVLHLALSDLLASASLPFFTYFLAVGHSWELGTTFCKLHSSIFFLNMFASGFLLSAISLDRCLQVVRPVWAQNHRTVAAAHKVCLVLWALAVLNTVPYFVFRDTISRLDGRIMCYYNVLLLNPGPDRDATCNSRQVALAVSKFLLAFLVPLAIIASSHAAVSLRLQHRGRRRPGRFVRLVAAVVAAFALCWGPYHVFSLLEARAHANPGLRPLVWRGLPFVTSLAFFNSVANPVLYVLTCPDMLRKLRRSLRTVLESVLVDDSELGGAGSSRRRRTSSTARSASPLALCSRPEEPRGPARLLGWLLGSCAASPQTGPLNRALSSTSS
Source text: A whole cell receptor binding assay using [^3H]ramatroban as the competing radioactive ligand was employed to evaluate the compound binding activity to human CRTH2. The radioactive ligand [^3H]ramatroban was synthesized according to Sugimoto et. al. (Eur. J. Pharmacol. 524, 30-37, 2005) to a specific activity of 42 Ci/mmol.
A cell line stably expressing human CRTH2 was established by transfecting CHO-K1 cells with two mammalian expression vectors that harbored human CRTH2 and G-alpha16 cDNAs, respectively, using FuGene® 6 transfection reagent (from Roche). Stable clones expressing CRTH2 were selected by staining each clone with BM16 (BD Pharmingen™ from BD Biosciences, a division of Becton, Dickinson and Company), which is a rat monoclonal antibody to human CRTH2. The cells were maintained as monolayer cultures in Ham's F-12 medium containing 10% fetal bovine serum, 100 units/mL penicillin, 100 μg/mL streptomycin, 2 mM glutamine, 0.5 mg/mL G418 (geneticin) for CRTH2, and 0.2 mg/mL hygromycin-B (for G-alpha 16). For whole cell receptor binding assay, the monolayer cells were rinsed once with PBS (phosphate buffered saline), dissociated using ethylenediaminetetraacetate (Versene™ EDTA from the Lonza Inc.), and suspended in PBS containing 10 mM MgCl2 and 0.06% BSA (bovine serum albumin) at 1.5×10^6 cells/mL.
The binding reactions (0.2 mL) were performed in 96-well plates at room temperature in PBS containing 1.5×10^5 cells, 10 mM MgCl2, 0.06% BSA, 20 nM [^3H]ramatroban, and test compound at various concentrations. After 1 hour of binding reactions, the cells were harvested on GF™/B filter microplates (microtiter plates with embedded glass fiber from PerkinElmer, Inc.) and washed 5 times with PBS using a Filtermate™ Harvester (a cell harvester that harvests and washes cells from microplates from PerkinElmer, Inc.). The radioactivities bound to the cells were determined using a microplate scintillation counter (TopCount® NXT, from PerkinElmer, Inc.) after adding 50 μL of Microscint™ 20 scintillation fluid (from PerkinElmer, Inc.) to each well of the filter plates. The radioactivity from non-specific binding was determined by replacing compound with 10 μM of 15(R)-15-methyl PGD2 (from Cayman Chemical Company) in the reaction mixtures. The radioactivity bound to the cells in the absence of compound (total binding) was determined by replacing compound with 0.25% of DMSO (dimethyl sulfoxide) in the reaction mixture. Specific binding data were obtained by subtracting the radioactivity of non-specific binding from each binding data.
The IC50 value is defined as the concentration of the tested compound that is required for 50% inhibition of total specific binding. In order to calculate the IC50 value, the percent inhibition data were determined for 7 concentrations for each compound. The percent inhibition for a compound at each concentration was calculated according to the following formula, [1-(specific binding in the presence of compound)/(total specific binding)]×100. The IC50 value was then obtained by fitting the percent inhibition data to a sigmoidal dose-response (4 parameter logistic) model in the XLfit® software Excel add-in program [from ID Business Solutions Ltd., model 205, where F(x)=(A+(B−A)/(1+((C/x)^D)))].

Row | IC50 | Structure (SMILES)
1 | 5.9 nM | Cc1cc(-c2ccc(S(=O)(=O)N[C@@H]3CCCc4c(OCC(=O)O)cccc43)cc2)cc(C(C)(C)C)c1 [Example 3-45, [(R)-5-(3′-tert-Butyl-5′-methyl-biphenyl-4-sulfonylamino)-5,6,7,8-tetrahydro-naphthalen-1-yloxy]-acetic acid]
2 | 157 nM | Cc1ccc(-c2ccc(S(=O)(=O)N[C@@H]3CCCc4c(OCC(=O)O)cccc43)cc2C)cc1 [Example 3-34, [(R)-5-(2,4′-Dimethyl-biphenyl-4-sulfonylamino)-5,6,7,8-tetrahydro-naphthalen-1-yloxy]-acetic acid]
3 | 2.9 nM | CN([C@@H]1CCCc2c(OCC(=O)O)cccc21)S(=O)(=O)c1cc(C(F)(F)F)cc(S(=O)(=O)c2ccc(Cl)cc2)c1 [Example 8-1, ((R)-5-{[3-(4-Chloro-benzenesulfonyl)-5-trifluoromethyl-benzenesulfonyl]-methyl-amino}-5,6,7,8-tetrahydro-naphthalen-1-yloxy)-acetic acid]
4 | 20.3 nM | CS(=O)(=O)c1cncc(-c2ccc(S(=O)(=O)NC3CCCc4c(OCC(=O)O)cccc43)cc2)c1 (stereo not drawn) [Example 3-16, {5-[4-(5-Methanesulfonyl-pyridin-3-yl)-benzenesulfonylamino]-5,6,7,8-tetrahydro-naphthalen-1-yloxy}-acetic acid]
5 | 67.1 nM | CN(C)C(=O)c1ccc(-c2ccc(S(=O)(=O)N[C@@H]3CCCc4c(OCC(=O)O)cccc43)cc2)cc1 [Example 3-30, [(R)-5-(4′-Dimethylcarbamoyl-biphenyl-4-sulfonylamino)-5,6,7,8-tetrahydro-naphthalen-1-yloxy]-acetic acid]
6 | 4.8 nM | Cc1cc(-c2ccc(S(=O)(=O)N[C@@H]3CCCc4c(OCC(=O)O)cccc43)nc2)cc(C(C)(C)C)c1 [Example 3-48, {(R)-5-[5-(3-tert-Butyl-5-methyl-phenyl)-pyridine-2-sulfonylamino]-5,6,7,8-tetrahydro-naphthalen-1-yloxy}-acetic acid]
7 | 203 nM | O=C(O)COc1cccc2c1CCCC2NS(=O)(=O)c1ccc(-c2cccnc2F)cc1 (stereo not drawn) [Example 3-3, {5-[4-(2-Fluoro-pyridin-3-yl)-benzenesulfonylamino]-5,6,7,8-tetrahydro-naphthalen-1-yloxy}-acetic acid]
8 | 55.1 nM | O=C(O)COc1cccc2c1CCCC2NS(=O)(=O)c1ccc(-c2cc(F)ccn2)cc1 (stereo not drawn) [Example 3-1, {5-[4-(4-Fluoro-pyridin-2-yl)-benzenesulfonylamino]-5,6,7,8-tetrahydro-naphthalen-1-yloxy}-acetic acid]
9 | 70.7 nM | O=C(O)COc1cccc2c1CCCC2NS(=O)(=O)c1ccc(-c2ccc(OC(F)(F)F)cc2)cn1 (stereo not drawn) [Example 3-62, {5-[5-(4-Trifluoromethoxy-phenyl)-pyridine-2-sulfonylamino]-5,6,7,8-tetrahydro-naphthalen-1-yloxy}-acetic acid]
10 | 147 nM | CN([C@@H]1CCCc2c(OCC(=O)O)cccc21)S(=O)(=O)c1ccc(Oc2ccc(Cl)cc2)c(Cl)c1 [Example 6-1, ((R)-5-{[3-Chloro-4-(4-chloro-phenoxy)-benzenesulfonyl]-methyl-amino}-5,6,7,8-tetrahydro-naphthalen-1-yloxy)-acetic acid]
11 | 124 nM | O=C(O)COc1cccc2c1CCC[C@H]2NS(=O)(=O)c1ccc(-c2ccc(O)cc2)cc1 [Example 3-23, [(R)-5-(4′-Hydroxy-biphenyl-4-sulfonylamino)-5,6,7,8-tetrahydro-naphthalen-1-yloxy]-acetic acid]
12 | 23.9 nM | O=C(O)COc1cccc2c1CCC[C@H]2NS(=O)(=O)c1ccc(-c2cccc([N+](=O)[O-])c2)cc1 [Example 3-41, [(R)-5-(3′-Nitro-biphenyl-4-sulfonylamino)-5,6,7,8-tetrahydro-naphthalen-1-yloxy]-acetic acid]

Continued, compound first:

Row | Structure (SMILES) | IC50
13 | COc1ccc(-c2ccc(S(=O)(=O)N[C@@H]3CCCc4c(OCC(=O)O)cccc43)cc2)cc1 [Example 1-8, [(R)-5-(4′-Methoxy-biphenyl-4-sulfonylamino)-5,6,7,8-tetrahydro-naphthalen-1-yloxy]-acetic acid] | 65.9 nM
14 | Cc1ccc(-c2ccc(S(=O)(=O)N[C@@H]3CCCc4c(OCC(=O)O)cccc43)cc2)cc1 [Example 1-2, [(R)-5-(4′-Methyl-biphenyl-4-sulfonylamino)-5,6,7,8-tetrahydro-naphthalen-1-yloxy]-acetic acid] | 51.6 nM
15 | O=C(O)COc1cccc2c1CCC[C@H]2NS(=O)(=O)c1ccc(Oc2ccc(Cl)cc2)c(Cl)c1 [Example 2-2, {(R)-5-[3-Chloro-4-(4-chloro-phenoxy)-benzenesulfonylamino]-5,6,7,8-tetrahydro-naphthalen-1-yloxy}-acetic acid] | 10.2 nM
16 | O=C(O)COc1cccc2c1CCCC2NS(=O)(=O)c1cnc(Oc2ccc(CCO)cc2)c(Br)c1 (stereo not drawn) [Example 2-22, (5-{5-Bromo-6-[4-(2-hydroxy-ethyl)-phenoxy]-pyridine-3-sulfonylamino}-5,6,7,8-tetrahydro-naphthalen-1-yloxy)-acetic acid] | 31.7 nM
17 | O=C(O)COc1cccc2c1CCCC2NS(=O)(=O)c1cnc(Oc2ccc3c(c2)CCC3)c(Br)c1 (stereo not drawn) [Example 2-17, {5-[5-Bromo-6-(indan-5-yloxy)-pyridine-3-sulfonylamino]-5,6,7,8-tetrahydro-naphthalen-1-yloxy}-acetic acid] | 115 nM
18 | CC(=O)c1ccc(-c2ccc(S(=O)(=O)N[C@@H]3CCCc4c(OCC(=O)O)cccc43)cc2)cc1 [Example 1-10, [(R)-5-(4′-Acetyl-biphenyl-4-sulfonylamino)-5,6,7,8-tetrahydro-naphthalen-1-yloxy]-acetic acid] | 67.4 nM
19 | O=C(O)COc1cccc2c1CCC[C@H]2NS(=O)(=O)c1ccc(-c2ccc(Cl)cc2)cc1 [Example 1-9, [(R)-5-(4′-Chloro-biphenyl-4-sulfonylamino)-5,6,7,8-tetrahydro-naphthalen-1-yloxy]-acetic acid] | 84.1 nM
20 | O=C(O)COc1cccc2c1CCCC2NS(=O)(=O)c1cccc(Oc2ccccc2)c1 (stereo not drawn) [Example 1-3, [5-(3-Phenoxy-benzenesulfonylamino)-5,6,7,8-tetrahydro-naphthalen-1-yloxy]-acetic acid] | 200 nM
21 | O=C(O)COc1cccc2c1CCC[C@H]2NS(=O)(=O)c1ccc(-c2ccc(F)cc2)cc1 [Example 1-7, [(R)-5-(4′-Fluoro-biphenyl-4-sulfonylamino)-5,6,7,8-tetrahydro-naphthalen-1-yloxy]-acetic acid] | 52.6 nM
22 | Cc1cc(C)cc(Oc2ncc(S(=O)(=O)NC3CCCc4c(OCC(=O)O)cccc43)cc2Br)c1 (stereo not drawn) [Example 2-15, {5-[5-Bromo-6-(3,5-dimethyl-phenoxy)-pyridine-3-sulfonylamino]-5,6,7,8-tetrahydro-naphthalen-1-yloxy}-acetic acid] | 75.2 nM
23 | O=C(O)COc1cccc2c1CCCC2NS(=O)(=O)c1ccc(Oc2ccccc2)nc1 (stereo not drawn) [Example 1-6, [5-(6-Phenoxy-pyridine-3-sulfonylamino)-5,6,7,8-tetrahydro-naphthalen-1-yloxy]-acetic acid] | 188 nM
24 | CC(C)c1cccc(Oc2ncc(S(=O)(=O)NC3CCCc4c(OCC(=O)O)cccc43)cc2Br)c1 (stereo not drawn) [Example 2-9, {5-[5-Bromo-6-(3-isopropyl-phenoxy)-pyridine-3-sulfonylamino]-5,6,7,8-tetrahydro-naphthalen-1-yloxy}-acetic acid] | 21.2 nM
